These results are taken from patent US10894798B2, “Substituted dihydropyrrolopyrazole derivative” (UBE INDUSTRIES, LTD., priority 2015, dated 2021).

One may read the inhibition as the percentage by which the read-out fell short of the control.

Data set [1] concerns human large intestine cancer cell line HCT-116. The experiment in a line: In vitro cell growth inhibitory activity against human large intestine cancer line by combined use with chemotherapeutic. In kind it is cell-based. The following applies: HCT-116, 3 days, IV-361 10 nM. As for the experimental part:
A human large intestine cancer cell line HCT-116 (obtained from DS Pharma Biomedical Co., Ltd.) was cultured in a McCoy's 5A medium (manufactured by Thermo Fisher Scientific, Inc.) containing 10% fetal bovine serum (FBS) (manufactured by Thermo Fisher Scientific, Inc.) and 1% penicillin/streptomycin/amphotericin B (manufactured by Thermo Fisher Scientific, Inc.) and inoculated at 0.5 to 2.0×10^3 cells/well to a 96-well plate. The cells were cultured overnight in a carbon dioxide incubator of 37° C. containing 5% carbon dioxide. The medium was replaced with a fresh medium on the next day, and then, a mixed solution of a DMSO solution of a test compound (IV-361, 5-FU or SN-38) with varying concentrations and a cell culture medium (final DMSO concentration: 0.2%) was added thereto. The concentration of the test compound was 10 nM, the concentration of 5-FU (manufactured by Wako Pure Chemical Industries, Ltd.) was 1000 nM, and the concentration of SN-38 (manufactured by Tocris Bioscience) was adjusted to 1 nM to carry out the test. For a control group, a mixed solution of DMSO and a cell culture medium (final DMSO concentration: 0.2%) was used instead of the DMSO solution of the test compound.
After the addition of the DMSO solution of the test compound, the cells were cultured for 3 days in a carbon dioxide incubator. Then, the absorbance (measurement wavelength: 565 nm) of the medium in each group was measured by using In Vitro Toxicology Assay Kit Sulforhodamine B based (manufactured by Sigma-Aldrich Co. LLC.).
The rate of inhibition of growth (%) was calculated according to the expression given below. Specifically, in the case where the difference between the average absorbance before culture (day 0) and the average absorbance after culture in the test compound-administered group is the same as the difference between the average absorbance before culture (day 0) and the average absorbance after culture in the control group, the rate of inhibition of cell growth is 0%. Rate of inhibition of growth=(1−((Average absorbance of the test compound-administered group after culture)−(Average absorbance of the test compound-administered group on day 0))/((Average absorbance of the control group after culture)−(Average absorbance of the control group on day 0)))×100

For data set [2], the system named is human large intestine cancer cell line (HCT-116) tumor. Description: In vivo tumor growth inhibition test for human large intestine cancer cell line by combined use with chemotherapeutic. The following applies: for Rate of suppression of tumor volume: IV-361 25 mg/kg/day oral, alone.
Protocol: The prepared cell suspension was subcutaneously injected at 0.1 mL/mouse to the right abdomens of female BALB nude mice (supplied by Charles River Laboratories Japan, Inc.).
Individuals whose tumor volume was within the range of 50 to 200 mm^3 were selected and grouped such that the tumor volume was almost equivalent. After the grouping, a test compound or only a solvent was administered in a repeated manner to the mice of each group as follows:
Single-agent administration group:
Control group: solvent (administered once a day)
5-FU, oxaliplatin, and irinotecan were intraperitoneally administered (5 mL/kg).
After a lapse of a predetermined period, the body weights of the mice of each group and the long diameter and short diameter of tumor were measured, and the tumor volume of the test compound-administered group with respect to the tumor volume of the control group was calculated as the rate of suppression of tumor volume (%).
Data set [3] has as its system mouse collagen-induced arthritis model. Description: Swelling suppression test using mouse collagen-induced arthritis model. In kind it is in vivo. The following applies: dose of 100 mg/kg, repeated oral administration, male DBA/1J mice. Here is the method:
A mouse collagen-induced arthritis model test was carried out by modifying the method of Mihara et al. (British Journal of Pharmacology, 154, 153 (2008)).
Male DBA/1J mice (supplied by Japan SLC, Inc.) were used as laboratory animals. An adjuvant prepared from a type II collagen solution (Collagen Research Center) and Adjuvant Complete Freund (manufactured by Difco Laboratories Ltd.) was intracutaneously administered twice to the bases of the tails of the mice under inhalation anesthesia with isoflurane (manufactured by Wako Pure Chemical Industries, Ltd.) for sensitization to prepare arthritis models.
Also, Adjuvant Complete Freund (manufactured by Difco Laboratories Ltd.) not containing type II collagen was administered by a similar method to obtain a control group. […]
During the test period, the swelling scoring of limbs (score 0: no disease, score 1: swelling and redness or weak swelling in the small joint of only one of the toes and the fingers, score 2: moderate swelling in the small joints of two or more of the toes and the fingers, score 3: strong swelling in the ankle or the forefoot wrist, score 4: overall strong swelling) was carried out to evaluate the drug efficacy of the test compound. When the total score of the solvent-administered group on the final day was defined as 100%, the rate of reduction in score (%) at each dose of the test compound was calculated.

Turning to `Cc1ccc(F)cc1NC(=O)N1Cc2c(NC(=O)C3([Si](C)(C)C)CCC3)n[nH]c2C1(C)C` [IV-361, N-(5-Fluoro-2-methylphenyl)-6,6-dimethyl-3-[1-(trimethylsilyl)cyclobutanecarboxamido]-4,6-dihydropyrrolo[3,4-c]pyrazole-5 (1H)-carboxamide], the inhibition at 0.01 µM in data set [1] (Homo sapiens, 72 h, single-agent treatment, read-out: Rate of inhibition of growth (%)) was 11%. Also, the “cancer cell growth inhibitory effect in combined use with chemotherapeutic (5-FU or SN-38)” value in data set [1] (5-FU 1000 nM, SN-38 1 nM) was “synergistic cancer cell growth inhibitory effect”. Besides, the “rate of suppression of tumor volume in combined use with chemotherapeutic (5-FU, oxaliplatin or irinotecan)” value in data set [2] (25 mg/kg IV-361 oral + 15 mg/kg 5-FU, 3 mg/kg oxaliplatin or 12.5 mg/kg irinotecan i.p., HCT-116 nude mice) is reported as “excellent rate of suppression of tumor volume”. Further, the “Rate of suppression of tumor volume” value in data set [2] (Table 52) is 46%; in data set [2] (Table 53), 46%; in data set [2] (Table 54), 20%. In addition, in data set [3], the “rate of inhibition (reduction in swelling score)” value was no less than 50%.
